The subject of assay [1] is Potatoes from the variety Bintje, Innovator and Nicola. Kind of assay: Fresh sprout weight of stored potatoes treated by fogging (Example 7). The format is in vivo, Solanum tuberosum. The note with it: Treatment at 50 ml/ton, corresponding to 450 g limonene/ton or 450 ppm. The protocol: Potatoes were treated with 100% orange oil every 3 weeks via application by cold fogging using a potato mist blower VEUGEN in the above part of a storage cell between bag fillings and the top of the cell.
Potatoes from the variety Bintje, Innovator and Nicola were stored in a storage room and each storage room (trail number) was treated with a different product in the anti-sprouting treatment. BIO-024 stands for Orange oil, with at least 900 g limonene/1, BIOX M is a trade name of a mint oil based product that is commercially available as an anti-sprouting agent, Gro Stop fog is a trade name of a CIPC containing product for the treatment of sprouting of potatoes.
An overview of the fresh sprout weight and the weight loss of samples that were taken on 11 February, 11 March, 8 April and 6 May is given in Table 6. […] Storage was carried out from 11 October until 16 May the year after, all products were applied by fogging.
Fresh sprout weight was assessed by weighing all sprouts per sample. Sprout weight was calculated for a standard sized sample of 1.0 kg potatoes: Fresh sprout weight(g)=fresh sprout weight sample/(weight sample unloading−sprouts)

The test system of assay [2] is potatoes (Bintje and Innovator). Put plainly: Tuber treatment in cabins, sprout formation (Example 2). The format is in vivo, Solanum tuberosum. Conditions: 600 EC limonene composition, 90 ml/1000 kg then 30 or 90 ml/1000 kg every 3 weeks, fogging. The protocol: In a second example, use of a 600 EC limonene composition according to example 1 the treatment of potatoes is illustrated.
In this example, 10 equal amounts of potatoes (20 kg Bintje and 20 kg Innovator) were treated in 5 different cabins. The first cabin acted as a control. No treating agent was applied in the first cabin.
In cabin 4, a composition according to example 1 was used, with limonene as active ingredient. The first application was done 2 weeks after harvesting at a concentration of 90 ml/1000 kg potatoes. After this application, the next applications were at a dose of 30 ml/1000 kg potatoes.
In cabin 5, the same composition as used in cabin 4 was used with 600 g/l limonene as active ingredient. The first application was done 2 weeks after harvesting at a concentration of 90 ml/1000 kg potatoes. Every 3 weeks the application was repeated at the same dose.
For all the cabins, the first treatment was on 22 October, 2 weeks after harvest. The potatoes were investigated for sprout formation at February 5, the next year, March 4, and April, 4. For each amount of potatoes the weight loss was determined, the sprout index was determined and the sprout weight was measured.
The sprout weight expressed in grams of the “Innovator”-variety potatoes is depicted in FIG. 3 for each cabin and at the 3 different times, corresponding to around 4, 5 and 6 months after harvest.

Assay [3] concerns potatoes. The note with it: WO 92/10934, cited from earlier work.
The test system of assay [4] is potatoes. The note with it: 45 g/ton at start and 15 g/ton every 20 days, after 5 months, WO 00/32063, cited from earlier work.

`C=C(C)[C@H]1CC=C(C)CC1` [limonene]: the “effectiveness to reach the levels of control obtainable by CIPC or mint oil” value in assay [1] was “not sufficiently effective”. The “effectiveness as treatment agent on its own (sprout formation)” value in assay [2] is “sufficient effectiveness”. Besides, the “influence on potato sprouting” value with potatoes [3] (headspace concentration of 1.70 mg/L after 7 days) was “did not have an influence on potato sprouting”. Besides, the eyes with sprouts with potatoes [3] (three unsprouted potatoes exposed to a 2 ml limonene soaked filter paper in a desiccator flask) is 0%. The weight loss in the assay on potatoes [4] (60 wt % limonene composition, untreated control 5.4%) is 4.5%. Besides, in the assay on potatoes [4] (limonene as 60 wt % composition, untreated control 100%), the sprout growth is 96.8%.

(Values after patent publication US11632963B2, “Tuber storage” (Arysta Lifescience Benelux Sprl, priority 2014, dated 2023).)
